Source: patent EP3250188B1, “PHARMACEUTICAL COMPOSITION COMPRISING APREPITANT AND METHOD FOR THE PREPARATION THEREOF” (Pharmathen S.A., priority 2015, dated 2016)
≈ marks a conversion by molar mass, not a printed value. Read-outs that look alike come from different tables or passages of the source.

Tests used:
[1] = Solubility study in FeSSIF (HPLC after 30 min stirring and centrifugation); format: physicochemical
Description: For the solubility study, a quantity of the solid dispersion equivalent to 10.0 mg of Aprepitant was dissolved in a 100ml volumetric flask with dissolution medium of fed state simulated intestinal fluid (FeSSIF) to a concentration of 0.1mg/ml. The solution was magnetically stirred for 30min and before injected in the HPLC it was centrifuged at 4000rpm for 5min. Finally the drug concentration was equated to the drug solubility. Table 1: Solubility of solid dispersion prepared according to example 1
Table 8: Solubilities of solid dispersions prepared by melt mixing

[2] = Dissolution, USP type II apparatus (paddles), 50 rpm, FeSSIF; format: physicochemical
Description: The rate and extent of drug dissolution was studied using a USP type II apparatus (paddles) at 50 rpm. The dissolution medium was a FeSSIF with pH 5.0. Table 2: Dissolution results of amorphous solid dispersions for different ratios of API to polymer compared with that of Aprepitant alone. The dissolution rate of the solid dispersions that present the best solubility was studied in USP II apparatus, 50rpm, FeSSIF medium.

[3] = cited from earlier work

## C[C@@H](O[C@H]1OCCN(Cc2nc(=O)[nH][nH]2)[C@H]1c1ccc(F)cc1)c1cc(C(F)(F)F)cc(C(F)(F)F)c1 [Aprepitant]
[1]; fed state simulated intestinal fluid (FeSSIF), fessif, thermodynamic from solid, solid dispersions prepared by spray drying, nominal concentration 0.1mg/ml, stirred 30min
  solubility at 30 min: 50 µg/mL (≈ 93.6 µM)
[1]; solid dispersions prepared by melt mixing at the stated temperature
  Solubility in FeSSIF: 50 µg/mL (≈ 93.6 µM)
[2]; 15 min, FeSSIF medium, melt mixed solid dispersions
  % release: 17,37%
[2]; 15 min, FeSSIF pH 5.0, spray dried solid dispersions
  % release: 17,37%
[2]; 30 min, FeSSIF medium, melt mixed solid dispersions
  % release: 38,74%
[2]; 30 min, FeSSIF pH 5.0, spray dried solid dispersions
  % release: 38,74%
[2]; 45 min, FeSSIF medium, melt mixed solid dispersions
  % release: 45,34%
[2]; 45 min, FeSSIF pH 5.0, spray dried solid dispersions
  % release: 45,34%
[2]; 60 min, FeSSIF medium, melt mixed solid dispersions
  % release: 47,38%
[2]; 60 min, FeSSIF pH 5.0, spray dried solid dispersions
  % release: 47,38%
[3]; in acetonitrile
  solubility: slightly soluble
[3]; in ethanol
  solubility: sparingly soluble
[3]; in isopropyl acetate
  solubility: sparingly soluble
[3]; in water
  solubility: practically insoluble
